The values below come from patent US9486506B2 (Novo Nordisk A/S, priority 2011, dated 2016).

pEC50: −log10 of the molar value. Numbered stars: 1 amine (or outer) side, 2 acyl side, 3 side chain; on linkers, the order of the positions; unused ones are H or OH. Side chains are listed from the residue outwards. Peptide text beside a SMILES is read from it. * marks the point of attachment. X1 = O=C(CCCCCCCCCCCCCCCc1nnn[nH]1)NS(=O)(=O)CCCC(=O)*; C18 diacid = O=C(O)CCCCCCCCCCCCCCCCC(=O)*; γGlu = O=C(O)[C@H](CCC(=O)[*:2])N[*:1]; AEEA = NCCOCCOCC(=O)O

The nature of series [1]: Assay (X) Chemical stability assessment by RP-UPLC. It is filed as physicochemical. Conditions: pH 8.15, 14 days at 37° C. vs 5° C., 333 μM.
A further series deals with T1, glucagon receptor (Homo sapiens, UniProt P47871).
T1 construct: expressed in transfected cells
T1 sequence (P47871 26-477): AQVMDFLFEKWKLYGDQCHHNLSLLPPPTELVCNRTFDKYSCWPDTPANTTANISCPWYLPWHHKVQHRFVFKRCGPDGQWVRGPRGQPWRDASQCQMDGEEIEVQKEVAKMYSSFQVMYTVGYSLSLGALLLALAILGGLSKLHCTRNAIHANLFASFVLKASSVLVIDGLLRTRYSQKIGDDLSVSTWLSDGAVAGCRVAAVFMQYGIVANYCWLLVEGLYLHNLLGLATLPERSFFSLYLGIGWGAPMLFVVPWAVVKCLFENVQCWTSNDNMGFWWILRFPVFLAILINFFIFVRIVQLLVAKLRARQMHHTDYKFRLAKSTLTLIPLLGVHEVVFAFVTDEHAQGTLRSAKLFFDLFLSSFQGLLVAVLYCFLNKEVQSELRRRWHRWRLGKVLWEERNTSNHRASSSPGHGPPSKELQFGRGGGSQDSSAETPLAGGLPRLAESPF
Kind of series: Assay (I) Glucagon activity (cAMP biosensor, FLIPR). It is filed as cell-based.

On to `CC(C)C[C@H](NC(=O)[C@H](Cc1c[nH]c2ccccc12)NC(=O)[C@H](CCCCNC(=O)CC[C@H](NC(=O)CC[C@H](NC(=O)COCCOCCNC(=O)COCCOCCNC(=O)CC[C@H](NC(=O)CCCCCCCCCCCCCCCCC(=O)O)C(=O)O)C(=O)O)C(=O)O)NC(=O)[C@@H](NC(=O)[C@H](Cc1ccccc1)NC(=O)[C@H](CC(=O)O)NC(=O)[C@H](CCC(N)=O)NC(=O)[C@H](C)NC(=O)[C@H](CCCNC(=N)N)NC(=O)[C@H](CCCNC(=N)N)NC(=O)[C@@H](NC(=O)[C@H](CC(=O)O)NC(=O)[C@H](CC(C)C)NC(=O)[C@H](Cc1ccc(O)cc1)NC(=O)[C@H](CCCCN)NC(=O)[C@H](CO)NC(=O)[C@H](Cc1ccc(O)cc1)NC(=O)[C@H](CC(=O)O)NC(=O)[C@H](CO)NC(=O)[C@@H](NC(=O)[C@H](Cc1ccccc1)NC(=O)[C@@H](NC(=O)CNC(=O)[C@H](CCC(N)=O)NC(=O)[C@H](CO)NC(=O)[C@@H](N)Cc1c[nH]cn1)[C@@H](C)O)[C@@H](C)O)[C@@H](C)O)C(C)C)C(=O)N[C@@H](CC(C)C)C(=O)N[C@@H](CO)C(=O)N[C@H](C(=O)O)[C@@H](C)O` [Example 12, N^ε24-[(4S)-4-carboxy-4-[[(4S)-4-carboxy-4-[[2-[2-[2-[[2-[2-[2-[[(4S)-4-carboxy-4-(17-carboxyheptadecanoylamino)butanoyl]amino]ethoxy]ethoxy]acetyl]amino]ethoxy]ethoxy]acetyl]amino]butanoyl]amino]butanoyl]-[Thr^16,Lys^24,Leu^27,Ser^28]-Glucagon], for which the “Chemical stability [Purity loss/14 days 37 C.]” value in series [1] was 7.0%. The negative-log EC50 (pEC50) (usually the negative decadic logarithm of the EC50, by convention in mol/L) on glucagon receptor was 10.12.

Consider `CC(C)C[C@H](NC(=O)[C@H](Cc1ccc(O)cc1)NC(=O)[C@H](CCCCN)NC(=O)[C@H](CO)NC(=O)[C@H](Cc1ccc(O)cc1)NC(=O)[C@H](CC(=O)O)NC(=O)[C@H](CO)NC(=O)[C@@H](NC(=O)[C@H](Cc1ccccc1)NC(=O)[C@@H](NC(=O)CNC(=O)[C@H](CCC(N)=O)NC(=O)[C@H](CO)NC(=O)[C@@H](N)Cc1c[nH]cn1)[C@@H](C)O)[C@@H](C)O)C(=O)N[C@@H](CCC(=O)O)C(=O)N[C@@H](CO)C(=O)N[C@@H](CCCNC(=N)N)C(=O)N[C@@H](CCCNC(=N)N)C(=O)N[C@@H](C)C(=O)N[C@@H](CCC(N)=O)C(=O)N[C@@H](CC(=O)O)C(=O)N[C@@H](Cc1ccccc1)C(=O)N[C@H](C(=O)N[C@@H](CCCCNC(=O)CC[C@H](NC(=O)CC[C@H](NC(=O)COCCOCCNC(=O)CCCS(=O)(=O)NC(=O)CCCCCCCCCCCCCCCc1nnn[nH]1)C(=O)O)C(=O)O)C(=O)N[C@@H](Cc1c[nH]c2ccccc12)C(=O)N[C@@H](CC(C)C)C(=O)N[C@@H](CC(C)C)C(=O)N[C@@H](CO)C(=O)N[C@H](C(=O)O)[C@@H](C)O)C(C)C` [Example 66, N^ε24-[(4S)-4-carboxy-4-[[(4S)-4-carboxy-4-[[2-[2-[2-[4-[16-(1H-tetrazol-5-yl)hexadecanoylsulfarnoyl]butanoylamino]ethoxy]ethoxy]acetyl]amino]butanoyl]amino]butanoyl][Glu15,Lys24,Leu27,Ser28]-Glucagon] (H-HSQGTFTSDYSKYLESRRAQDFVK([γGlu-γGlu-AEEA-X1])WLLST-OH; N-terminus and C-terminus assumed), for which the “Chemical stability [Purity loss/14 days 37 C.]” value in series [1] is reported as 8.3%. In addition, the pEC50 on glucagon receptor was 9.40.

As for `CC(C)C[C@H](NC(=O)[C@H](Cc1ccc(O)cc1)NC(=O)[C@H](CCCCN)NC(=O)[C@H](CO)NC(=O)[C@H](Cc1ccc(O)cc1)NC(=O)[C@H](CC(=O)O)NC(=O)[C@H](CO)NC(=O)[C@@H](NC(=O)[C@H](Cc1ccccc1)NC(=O)[C@@H](NC(=O)CNC(=O)[C@H](CCC(N)=O)NC(=O)[C@H](CO)NC(=O)[C@@H](N)Cc1c[nH]cn1)[C@@H](C)O)[C@@H](C)O)C(=O)N[C@@H](CCC(=O)O)C(=O)N[C@@H](CO)C(=O)N[C@@H](CCCNC(=N)N)C(=O)N[C@@H](CCCNC(=N)N)C(=O)N[C@@H](C)C(=O)N[C@@H](CCC(N)=O)C(=O)N[C@@H](CCC(=O)O)C(=O)N[C@@H](Cc1ccccc1)C(=O)N[C@H](C(=O)N[C@@H](CCCCNC(=O)CC[C@H](NC(=O)CC[C@H](NC(=O)CC[C@H](NC(=O)CC[C@H](NC(=O)CCCCCCCCCCCCCCCCC(=O)O)C(=O)O)C(=O)O)C(=O)O)C(=O)O)C(=O)N[C@@H](Cc1c[nH]c2ccccc12)C(=O)N[C@@H](CC(C)C)C(=O)N[C@@H](CC(C)C)C(=O)N[C@@H](CO)C(=O)N[C@H](C(=O)O)[C@@H](C)O)C(C)C` [Example 49, N^ε24-[(4S)-4-carboxy-4-[[(4S)-4-carboxy-4-[[(4S)-4-carboxy-4-[[(4S)-4-carboxy-4-(17-carboxyheptadecanoylamino)butanoyl]amino]butanoyl]amino]butanoyl]amino]butanoyl]-[Glu15,Glu21,Lys24,Leu27,Ser28]-Glucagon] (H-HSQGTFTSDYSKYLESRRAQEFVK([γGlu-γGlu-γGlu-γGlu-C18 diacid])WLLST-OH), the “Chemical stability [Purity loss/14 days 37 C.]” value in series [1] is on record as 6.8%. The same molecule showed a negative-log EC50 (pEC50) on glucagon receptor of 9.77.

Consider `CC(C)C[C@H](NC(=O)[C@H](Cc1ccc(O)cc1)NC(=O)[C@H](CCCCN)NC(=O)[C@H](CO)NC(=O)[C@H](Cc1ccc(O)cc1)NC(=O)[C@H](CC(=O)O)NC(=O)[C@H](CO)NC(=O)[C@@H](NC(=O)[C@H](Cc1ccccc1)NC(=O)[C@@H](NC(=O)CNC(=O)[C@H](CCC(N)=O)NC(=O)[C@H](CO)NC(=O)[C@@H](N)Cc1c[nH]cn1)[C@@H](C)O)[C@@H](C)O)C(=O)N[C@@H](CC(=O)O)C(=O)N[C@@H](C)C(=O)N[C@@H](CCCNC(=N)N)C(=O)N[C@@H](CCCNC(=N)N)C(=O)N[C@@H](C)C(=O)N[C@@H](CCC(N)=O)C(=O)N[C@@H](CC(=O)O)C(=O)N[C@@H](Cc1ccccc1)C(=O)N[C@H](C(=O)N[C@@H](CCCCNC(=O)CC[C@H](NC(=O)CC[C@H](NC(=O)COCCOCCNC(=O)COCCOCCNC(=O)CC[C@H](NC(=O)CCCCCCCCCCCCCCCCC(=O)O)C(=O)O)C(=O)O)C(=O)O)C(=O)N[C@@H](Cc1c[nH]c2ccccc12)C(=O)N[C@@H](CC(C)C)C(=O)N[C@@H](CC(C)C)C(=O)N[C@@H](CO)C(=O)N[C@H](C(=O)O)[C@@H](C)O)C(C)C` [Example 43, N^ε24-[(4S)-4-carboxy-4-[[(4S)-4-carboxy-4-[[2-[2-[2-[[2-[2-[2-[[(4S)-4-carboxy-4-(17-carboxyheptadecanoylamino)butanoyl]amino]ethoxy]ethoxy]acetyl]amino]ethoxy]ethoxy]acetyl]amino]butanoyl]amino]butanoyl]-[Ala16,Lys24,Leu27,Ser28]-Glucagon], for which the “Chemical stability [Purity loss/14 days 37 C.]” value in series [1] came out at 7.6%. In addition, the pEC50 on glucagon receptor is 10.31.

As for `CC(C)C[C@H](NC(=O)[C@H](Cc1ccc(O)cc1)NC(=O)[C@H](CCCCN)NC(=O)[C@H](CO)NC(=O)[C@H](Cc1ccc(O)cc1)NC(=O)[C@H](CC(=O)O)NC(=O)[C@H](CO)NC(=O)[C@@H](NC(=O)[C@H](Cc1ccccc1)NC(=O)[C@@H](NC(=O)CNC(=O)[C@H](CCC(N)=O)NC(=O)[C@H](CO)NC(=O)[C@@H](N)Cc1c[nH]cn1)[C@@H](C)O)[C@@H](C)O)C(=O)N[C@@H](CCC(=O)O)C(=O)N[C@@H](CO)C(=O)N[C@@H](CCCNC(=N)N)C(=O)N[C@@H](CCCNC(=N)N)C(=O)N[C@@H](C)C(=O)N[C@@H](CCC(N)=O)C(=O)N[C@@H](CC(=O)O)C(=O)N[C@@H](Cc1ccccc1)C(=O)N[C@H](C(=O)N[C@@H](CCCCNC(=O)CC[C@H](NC(=O)CC[C@H](NC(=O)COCCOCCNC(=O)CC[C@H](NC(=O)CCCS(=O)(=O)NC(=O)CCCCCCCCCCCCCCCc1nnn[nH]1)C(=O)O)C(=O)O)C(=O)O)C(=O)N[C@@H](Cc1c[nH]c2ccccc12)C(=O)N[C@@H](CC(C)C)C(=O)N[C@@H](CC(C)C)C(=O)N[C@@H](CO)C(=O)N[C@H](C(=O)O)[C@@H](C)O)C(C)C` [Example 65, N^ε24-[(4S)-4-carboxy-4-[[(4S)-4-carboxy-4-[[2-[2-[2-[[(4S)-4-carboxy-4-[4-[16-(1H-tetrazol-5-yl)hexadecanoylsulfarnoyl]butanoylamino]butanoyl]amino]ethoxy]ethoxy]acetyl]amino]butanoyl]amino]butanoyl]-[Glu15,Lys24,Leu27,Ser28]-Glucagon] (H-HSQGTFTSDYSKYLESRRAQDFVK([γGlu-γGlu-AEEA-γGlu-X1])WLLST-OH; N-terminus and C-terminus assumed), in series [1], the “Chemical stability [Purity loss/14 days 37 C.]” value turned out to be 7.8%. Besides, on glucagon receptor, the pEC50 was 9.44.

Turning to `CC(C)C[C@H](NC(=O)[C@H](Cc1ccc(O)cc1)NC(=O)[C@H](CCCCN)NC(=O)[C@H](CO)NC(=O)[C@H](Cc1ccc(O)cc1)NC(=O)[C@H](CC(=O)O)NC(=O)[C@H](CO)NC(=O)[C@@H](NC(=O)[C@H](Cc1ccccc1)NC(=O)[C@@H](NC(=O)CNC(=O)[C@H](CCC(N)=O)NC(=O)[C@H](CO)NC(=O)[C@@H](N)Cc1c[nH]cn1)[C@@H](C)O)[C@@H](C)O)C(=O)N[C@@H](CC(=O)O)C(=O)N[C@@H](C)C(=O)N[C@@H](CCCNC(=N)N)C(=O)N[C@@H](CCCNC(=N)N)C(=O)N[C@@H](C)C(=O)N[C@@H](CCC(N)=O)C(=O)N[C@@H](CC(=O)O)C(=O)N[C@@H](Cc1ccccc1)C(=O)N[C@H](C(=O)N[C@@H](CCCCNC(=O)CC[C@H](NC(=O)CC[C@H](NC(=O)COCCOCCNC(=O)COCCOCCNC(=O)CC[C@H](NC(=O)CCCCCCCCCCCCCCCCC(=O)O)C(=O)O)C(=O)O)C(=O)O)C(=O)N[C@@H](Cc1c[nH]c2ccccc12)C(=O)N[C@@H](CC(C)C)C(=O)N[C@@H](CCC(=O)O)C(=O)N[C@@H](CO)C(=O)N[C@H](C(=O)O)[C@@H](C)O)C(C)C` [Example 57, N^ε24-[(4S)-4-carboxy-4-[[(4S)-4-carboxy-4-[[2-[2-[2-[[2-[2-[2-[[(4S)-4-carboxy-4-(17-carboxyheptadecanoylamino)butanoyl]amino]ethoxy]ethoxy]acetyl]amino]ethoxy]ethoxy]acetyl]amino]butanoyl]amino]butanoyl]-[Ala16,Lys24,Glu27,Ser28]-Glucagon], the “Chemical stability [Purity loss/14 days 37 C.]” value in series [1] was found to be 7.9%. Further, the pEC50 at glucagon receptor was 10.15.
